Publication PMC11862924, “Phenylpyrazoles as Inhibitors of the m^6A RNA-Binding Protein YTHDF2” (JACS Au, 2025)

Key:
[1] = MTT cytotoxicity assay, HCT116; type: cell-based; details: human, HCT116 cells, triplicates, read-out: Cytotoxicity against cancer cells (IC50), HCT116
Procedure: (§1) JAR, K562, and HCT116 cells were seeded in 96-well plates (3500 cells/well) and incubated for 8 h. The medium with different concentrations of compounds (100, 33.3, 11.1, 3.7, 1.2, and 0.4 μM) was added to the 96-well plates. Data were normalized to the medium with 0.1% DMSO. After incubation for 72 h, MTT solution (5 mg/mL, 20 μL) was added per well in a dark environment and incubated for 4 h. After the medium was discarded, DMSO (150 μL) was added per well, and the absorbance was measured at 492 nm by a plate reader (TECAN Spark).

[2] = target: T1, YTHDF2 (residues 383–553) (Homo sapiens, UniProt Q9Y5A9); assay: Fluorescence polarization (FP) assay, YTHDF2–m6A RNA interaction; type: binding; details: 100 μM compound; YTHDF2 (residues 383–553, 20 nM), FAM-labeled m6A RNA probe 5 nM; average ± SD
T1 construct: A YTHDF2 YTH domain construct (residues 383–553) was subcloned to a pOPIN plasmid; made in house; host or cells: Escherichia coli BL21(DE3)
T1 sequence (Q9Y5A9 383-553): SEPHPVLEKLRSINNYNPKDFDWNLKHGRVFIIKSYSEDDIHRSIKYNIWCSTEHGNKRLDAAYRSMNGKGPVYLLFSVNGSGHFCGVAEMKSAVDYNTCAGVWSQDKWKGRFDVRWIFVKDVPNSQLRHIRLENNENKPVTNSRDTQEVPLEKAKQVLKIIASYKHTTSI
Procedure: The FP assay was performed in 384-well black plates (Corning no. 4514) with a total reaction volume of 15 μL. The final concentrations of protein (YTHDF2) and RNA were […], respectively, in a buffer containing 20 mM HEPES/KOH pH 7.5, 50 mM NaCl, 0.005% Tween 20, and 1 mM GSH (DTT). Compounds were incubated with protein, added FAM-m^6A RNA probe ([…](m6)ACUGUG) (purchased from IDT), and incubated at 4 °C for 30 min. The fluorescence polarization was measured using a plate reader (TECAN Spark) under an excitation wavelength of 485 nm and an emission wavelength of 535 nm with a bandwidth of 20 nm. […] The data were determined using GraphPad Prism 9.

[3] = MTT cytotoxicity assay, K562; type: cell-based; details: human, K562 cells, triplicates, read-out: Cytotoxicity against cancer cells (IC50), K562
Procedure: as §1

HCT116 = assay: CCK-8 proliferation assay, HCT116; type: cell-based; details: Homo sapiens, HCT-116; CCK-8 kit assay, triplicates, 72 h; read-out: Anti-proliferation activity against cancer cells (IC50), HCT116
Procedure: (§2) The JAR, K562, HCT116, and MOLM13 cells were seeded in 96-well plates (3000 cells/well). After being cultured overnight, compounds were added together with the DMSO treatment (0.1%) as a control. After 72 h, CCK-8 solution (Vazyme, A311) was added, and the cells were incubated at 37 °C for 4 h. The absorbance was measured at 450 nm using a plate reader (TECAN Spark).

K562 = assay: CCK-8 proliferation assay, K562; type: cell-based; details: Homo sapiens, CCK-8 kit assay, triplicates, 72 h, read-out: Anti-proliferation activity against cancer cells (IC50), K562
Procedure: as §2

[4] = MTT cytotoxicity assay, JAR; type: cell-based; details: human, JAR cells, triplicates, read-out: Cytotoxicity against cancer cells (IC50), JAR
Procedure: as §1

JAR = assay: CCK-8 proliferation assay, JAR; type: cell-based; details: Homo sapiens; CCK-8 kit assay, triplicates, 72 h; read-out: Anti-proliferation activity against cancer cells (IC50), JAR
Procedure: as §2

Compound	IC50 at 72 h [1] [µM]	inhibition at 100 µM [2] [%]	IC50 at 72 h [3] [µM]	IC50 (HCT116) [µM]	IC50 (K562) [µM]	IC50 at 72 h [4] [µM]	IC50 (JAR) [µM]	inhibition at 100 μM in the FP assay [2] [%]
O=C(c1cnn(-c2ccccc2)c1)c1ccccc1O [CK-22]	43.5 ± 12.3	-3.7 ± 7.8	32.1 ± 12.2	> 50	28.3 ± 5.4	48.1 ± 10.2	27.6 ± 2.8	
O=C(O)c1cccc(-n2cc(C(=O)c3ccccc3O)cn2)c1 [CK-23, 3-(4-(2-hydroxybenzoyl)-1H-pyrazol-1-yl)benzoic acid]	12.9 ± 2.5		21.5 ± 8.2	> 50	> 50	45 ± 4.6	> 50	
O=C(O)c1ccc(-n2cc(C(=O)c3ccccc3O)cn2)cc1 [CK-24]	> 50	5.2 ± 6.7	43.2 ± 15.7	> 50	> 50	> 50	> 50	
O=C(c1cnn(-c2ccccc2C(=O)O)c1)c1ccccc1O [CK-25]	> 50	22.1 ± 3.3	44.3 ± 13.1	> 50	> 50	> 50	> 50	
O=C(c1cnn(-c2ccc(F)cc2)c1)c1ccccc1O [CK-26]	29.4 ± 10.4	10.7 ± 7.2	23.4 ± 9.4	43.2 ± 5.3	21.5 ± 1.9	47.2 ± 15.5	31.2 ± 6.4	
O=C(c1cnn(-c2ccc(Cl)cc2)c1)c1ccccc1O [CK-27]	> 50	-5.2 ± 2.8	> 50	45.6 ± 2.5	44.8 ± 8.7	> 50	> 50	
O=C(c1cnn(-c2ccc(Br)cc2)c1)c1ccccc1O [CK-28]	> 50	42.2 ± 12.1	> 50	> 50	> 50	> 50	> 50	
N#Cc1ccc(-n2cc(C(=O)c3ccccc3O)cn2)cc1 [CK-38]	> 50	44.5 ± 7.1	43.2 ± 11.2	> 50	> 50	> 50	> 50	
O=C(c1cnn(-c2ccc(OC(F)(F)F)cc2)c1)c1ccccc1O [CK-39]	26.4 ± 10.3	6.9 ± 3.3	19.8 ± 14.3	38.9 ± 12.1	25.6 ± 2.3	46.2 ± 20.8	31.2 ± 3.5	
COc1ccc(-n2cc(C(=O)c3ccccc3O)cn2)cc1 [CK-40]	25.5 ± 1.8	-4.8 ± 3.2	33.2 ± 5.8	> 50	39.2 ± 6.1	44.6 ± 12.3	> 50	
O=C(c1cnn(-c2ccccc2F)c1)c1ccccc1O [CK-43]	> 50	24.4 ± 2.1	46.2 ± 10.1	> 50	> 50	> 50	> 50	
O=C(c1cnn(-c2ccccc2Cl)c1)c1ccccc1O [CK-44]	18.5 ± 14.1	0.8 ± 7	32.3 ± 8.8	> 50	34.9 ± 3.5	44.7 ± 14.4	41.2 ± 8.5	
Cc1ccccc1-n1cc(C(=O)c2ccccc2O)cn1 [CK-45]	26 ± 16.8	22.1 ± 6.6	21.9 ± 7.6	> 50	33.1 ± 5.7	43.2 ± 15.5	42.8 ± 1.2	
COc1ccccc1-n1cc(C(=O)c2ccccc2O)cn1 [CK-46]	49.4 ± 22.1	5.4 ± 4.2	23.8 ± 4.7	> 50	42.9 ± 6.2	> 50	> 50	
COc1ccc(-n2cc(C(=O)c3ccccc3O)cn2)cn1 [CK-47]	> 50	25.5 ± 6.7	> 50	> 50	> 50	> 50	> 50	
O=C(c1cnn(-c2ccc(C(F)(F)F)cc2)c1)c1ccccc1O [CK-48]	43.1 ± 8.6	17.5 ± 4.2	22.8 ± 2.5	> 50	> 50	37 ± 12.7	> 50	
NS(=O)(=O)c1ccc(-n2cc(C(=O)c3ccccc3O)cn2)cc1 [CK-49]	29 ± 11.4	1.7 ± 6.5	20.1 ± 12.3	> 50	> 50	34.6 ± 5.9	> 50	
CS(=O)(=O)c1ccc(-n2cc(C(=O)c3ccccc3O)cn2)cc1 [CK-50]	> 50	24.3 ± 4	48.2 ± 11.1	> 50	> 50	> 50	> 50	
Cc1ccc(-n2cc(C(=O)c3ccccc3O)cn2)cc1 [CK-51]	18.5 ± 9.4	4.1 ± 3.7	20.2 ± 15.4	> 50	30.1 ± 6.3	32.9 ± 14.2	> 50	
Cc1ccc(O)c(C(=O)c2cnn(-c3ccc(C(=O)O)cc3)c2)c1 [CK-54]	> 50	20.9 ± 3.8	> 50	> 50	> 50	> 50	> 50	
O=C(O)c1ccc(-n2cc(C(=O)c3cc(Br)ccc3O)cn2)cc1 [CK-60]	12.5 ± 6.4	63.6 ± 10.8	16.4 ± 8.2	> 50	> 50	37.1 ± 11.4	> 50	
COC(=O)c1ccc(-n2cc(/C=C(\C#N)C(N)=O)cn2)cc1 [CK-94]		< 30						26.6 ± 1.9
